Experimental data published in article PMC8904075 (Journal of medicinal chemistry, 2021).
Several values for one entry are separate records, joined by “and”; a condition that tells them apart may be missing. Equal entries are not always repeated. Each block holds one molecule with its values, some of them ahead of it.

How the values were obtained:
P. berghei-infected mice = settings: antimalarials in clinical trials; cited from earlier work
P. berghei-GFP = assay: In vivo efficacy, modified Thompson test
[1] = assay type: in vivo
P. falciparum = assay: In vitro antimalarial activity as summarised in text; assay type: cell-based
[2] = Aqueous stability / parent compound release by quantitative HPLC; assay type: physicochemical; settings: for parent compound released: release of parent compound 4
[3] = test system: P. falciparum clone W2/Indochina (chloroquine and pyrimethamine resistant); assay: In vitro antimalarial activity, 3H-hypoxanthine incorporation, W2; assay type: cell-based; settings: Table 2; means of at least two independent experiments
[4] = test system: P. falciparum TM90-C2B/Thailand (chloroquine, mefloquine, pyrimethamine, and atovaquone resistant); assay: In vitro antimalarial activity, 3H-hypoxanthine incorporation, TM90-C2B; assay type: cell-based; settings: Table 2; means of at least two independent experiments

Molecule: C[C@H]1Cc2c([nH]c3cc(Cl)c(F)cc23)[C@@]2(N1)C(=O)Nc1ccc(Cl)cc12 [KAE609]
- single oral (PO) curative dose, single exposure radical cure (P. berghei-infected mice): 100 mg/kg

Molecule: CS(=O)(=O)c1ccc(-c2cnc(N)c(-c3ccc(C(F)(F)F)nc3)c2)cc1 [MMV390048]
- single oral (PO) curative dose, single exposure radical cure (P. berghei-infected mice): 30 mg/kg

Molecule: c1cc([C@H]2CC[C@]3(CC2)OOC2(O3)C3CC4CC(C3)CC2C4)ccc1OCCN1CCOCC1 (stereo partly shown) [OZ439]
- single oral (PO) curative dose, single exposure radical cure (P. berghei-infected mice): 20 mg/kg

Molecule: COc1cc2[nH]c(C)c(-c3ccc(Oc4ccc(OC(F)(F)F)cc4)cc3F)c(=O)c2cc1Cl [compound 2, 6-chloro-3-(2-fluoro-4-(4-(trifluoromethoxy)phenoxy)phenyl)-7-methoxy-2-methyl-4(1H)-quinolone]
- in vivo activity (P. berghei-GFP; single dose of 10 mg/kg, 0.5% aqueous HEC): completely inactive

- Tmax ([1]; plasma, po, 50 mg/kg): 2 h
- maximum plasma concentration of 4 ([1]; single oral 50 mg/kg of 4, 0.5% aqueous HEC): 365 nM
Molecule: COc1cc2[nH]c(C)c(-c3ccc(C(F)(F)F)cc3)c(=O)c2cc1Cl [compound 4, 6-chloro-7-methoxy-2-methyl-3-(4-(trifluoromethyl)phenyl)-4(1H)-quinolone]

Molecule: CCOC(=O)Oc1c(-c2ccccc2C)c(C)nc2cc(OC)c(Cl)cc12 [compound 11, 6-Chloro-7-methoxy-2-methyl-3-(o-tolyl)-4-((ethoxycarbonyl)oxy)quinoline]
- fold less potent than reference compound 3 (P. falciparum; in vitro antimalarial activity, Table 1): 10 fold

- EC50 (P. falciparum; Plasmodium falciparum): > 4 µM
Molecule: CN1CCCOC1=O [compound 13, 3-Methyl-1,3-oxazinan-2-one]

- parent compound released ([2]; in 1 h at pH 7.0): > 90%
- parent compound released ([2]; in 10 h at pH 4.0): > 25%
Molecule: CNCCOC(=O)OCOc1c(-c2ccc(C(F)(F)F)cc2)c(C)nc2cc(OC)c(Cl)cc12.Cl [compound 27, 6-Chloro-7-methoxy-2-methyl-3-(4-(trifluoromethyl)phenyl)-4-(((2-(methylammonio)ethoxycarbonyl)oxy)methoxy)quinoline, chloride salt]

Molecule: CNCCCOC(=O)OCOc1c(-c2ccc(C(F)(F)F)cc2)c(C)nc2cc(OC)c(Cl)cc12.Cl [compound 28, 6-Chloro-7-methoxy-2-methyl-3-(4-(trifluoromethyl)phenyl)-4-(((3-(methylammonio)propyloxycarbonyl)oxy)methoxy)quinoline, chloride salt]
- parent compound released ([2]; in 5 h at pH 7.0): > 55%
- stability at low pH values ([2]; low pH values): stable
- Suppression [%] day 6 PI ± S.D. (P. berghei-GFP; 10 mg/kg PO once a day on days 3–5 PI, 0.5% aqueous HEC, mice): 82 ± 0.6%
- extension of life span of treated animals relative to untreated controls (P. berghei-GFP; 10 and 50 mg/kg PO days 3–5 PI): does not significantly extend

Molecule: CNCCCOC(=O)OCOc1c(-c2ccc(Oc3ccc(OC(F)(F)F)cc3)cc2F)c(C)nc2cc(OC)c(Cl)cc12.Cl [compound 30, 6-Chloro-7-methoxy-2-methyl-3-(2-fluoro-4-(4-(trifluoromethoxy)phenoxy)phenyl)-4-(((3-(methylammonio)propyloxycarbonyl)oxy)methoxy)quinoline, chloride salt]
- single oral dose producing cures (P. berghei-GFP; P. berghei-infected mice, single dose, no advanced formulation): 3 mg/kg
- average day of death (P. berghei-GFP; single dose 1 mg/kg PO, all 5 mice): > 13 days
- number of cures (P. berghei-GFP; single dose 3 mg/kg PO on day 3 PI, 3 mg/kg): 5 out of 5 and 5/5
- number of cures (P. berghei-GFP; single dose 10 mg/kg PO on day 3 PI, 10 mg/kg): 5 out of 5 and 5/5
- clearance ([1]; single oral administration, 0.5% aqueous HEC): low clearance

Molecule: formaldehyde [compound 14]
- W2 pEC50 [3]: inactive
- EC50 (P. falciparum; release byproducts, devoid of antimalarial activity): > 4 µM
- C2B pEC50 [4]: inactive
